Literature values, collected in patent publication US20120021048A1, “Combination Dosage Compositions Comprising a Cholesterol-Lowering Agent, a Renin-Angiotensin System Inhibitor, an Antioxidant Agent and an Antiplatelet Agent for Treatment and Prevention of Cardiovascular Disease” (Nucitec S.A. de C.V., priority 2010, published 2012).
Like-named read-outs stand apart in the source and are kept apart here.

What was measured:
[1] = expected value, single agent at polypill dose, cited from earlier work
[2] = expected value; doses of polypill (atorvastatin 20 mg, lycopene 30 mg); cited from earlier work
macrophages = details: lycopene added to macrophages in cell culture; cited from earlier work
[3] = in vivo pure lycopene supplementation; cited from earlier work

| SMILES | % reduction in risk of Ischaemic heart disease [1] [%] | % reduction in risk of Ischaemic heart disease ([1]; listed as acetylsalicylic acid) | Reduction in concentration (LDL-cholesterol) [2] [mg/dL] | % reduction in risk of Ischaemic heart disease ([1]; listed as atorvastatin) | suppression of cellular cholesterol synthesis (macrophages) | reduction of plasma LDL cholesterol concentration [3] [%] |
| --- | --- | --- | --- | --- | --- | --- |
| CC(=O)Oc1ccccc1C(=O)O [Acetylsalicylic Acid] | 32 | about 32% | – | – | – | – |
| CC(C)c1c(C(=O)Nc2ccccc2)c(-c2ccccc2)c(-c2ccc(F)cc2)n1CC[C@@H](O)C[C@@H](O)CC(=O)O [Atorvastatin] | 61 | – | 70 | about 61% | – | – |
| CC(C)=CCC/C(C)=C/C=C/C(C)=C/C=C/C(C)=C/C=C/C=C(C)/C=C/C=C(C)/C=C/C=C(\C)CCC=C(C)C [Lycopene] | ~20 | – | 14 to 20 | – | approximately 40% | 14 |
| CCOC(=O)[C@H](CCc1ccccc1)N[C@@H](C)C(=O)N1[C@H](C(=O)O)C[C@@H]2CCC[C@@H]21 [Ramipril] | ~25 | – | – | – | – | – |
